Results as given in patent US20230147962A1, “FIBROBLAST ACTIVATION PROTEIN LIGANDS FOR TARGETED DELIVERY APPLICATIONS” (PHILOCHEM AG, priority 2020, published 2023).
Where two headings read alike, the source gives them in different places. *1 amine or outer side, *2 acyl side, *3 side chain or, on linkers, in order; H or OH if unused. Where a SMILES comes first, the peptide text is derived from it. The star is where a group is joined. Fluorescein(5-Mal) = O=C1OC2(c3ccc(O)cc3Oc3cc(O)ccc32)c2ccc(N3C(=O)CC(*)C3=O)cc21; X2 = N#C[C@@H]1CC(F)(F)CN1C(=O)CNC(=O)c1ccnc2ccc(OCCCN3CCN(*)CC3)cc12; Suc = O=C(CCC(=O)[*:2])[*:1]

What was measured:
[1] = biological target: T1, hFAP (Homo sapiens, UniProt Q12884); assay: In vitro human FAP enzyme IC50 assay (Z-Gly-Pro-AMC substrate); type: biochemical; settings: for hFAP inhibition (in words): FIG. 17, serial dilution from 10^−6 to 10^−11 M; for IC50: 20 nM human FAP, 20 μM substrate, read-out: IC50 hFAP inhibition
T1 construct: made in house; host or cells: CHO cells, transient gene expression, purified from supernatant
T1 sequence (Q12884 with tags, fused parts or gaps): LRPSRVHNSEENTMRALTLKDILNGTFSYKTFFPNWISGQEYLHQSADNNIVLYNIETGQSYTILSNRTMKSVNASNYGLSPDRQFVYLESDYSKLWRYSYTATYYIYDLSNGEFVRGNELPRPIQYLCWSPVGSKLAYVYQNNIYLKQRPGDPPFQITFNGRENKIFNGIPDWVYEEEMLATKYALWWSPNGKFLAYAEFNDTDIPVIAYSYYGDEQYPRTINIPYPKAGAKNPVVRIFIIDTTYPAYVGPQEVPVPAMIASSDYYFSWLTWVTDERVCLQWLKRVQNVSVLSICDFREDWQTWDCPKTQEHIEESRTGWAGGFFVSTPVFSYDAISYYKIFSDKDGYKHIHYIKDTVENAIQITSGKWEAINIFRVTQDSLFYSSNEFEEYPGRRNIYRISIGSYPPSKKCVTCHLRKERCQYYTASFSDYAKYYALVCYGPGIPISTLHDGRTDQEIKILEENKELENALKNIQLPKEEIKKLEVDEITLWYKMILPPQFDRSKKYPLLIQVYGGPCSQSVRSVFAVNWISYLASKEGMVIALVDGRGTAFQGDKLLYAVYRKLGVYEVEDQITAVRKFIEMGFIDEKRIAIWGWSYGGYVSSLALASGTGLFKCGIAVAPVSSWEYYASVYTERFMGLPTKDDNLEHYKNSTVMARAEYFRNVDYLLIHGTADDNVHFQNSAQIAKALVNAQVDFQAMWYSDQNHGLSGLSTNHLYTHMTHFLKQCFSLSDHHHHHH
Protocol: (§1) Enzymatic activity of human FAP on the Z-Gly-Pro-AMC substrate was measured at room temperature on a microtiter plate reader, monitoring the fluorescence at an excitation wavelength of 360 nm and an emission wavelength of 465 nm. The reaction mixture contained 20 μM substrate, 20 nM human FAP, assay buffer (50 mM Tris, 100 mM NaCl, 1 mM EDTA, pH=7.4) and inhibitor (ranging between 10^−6 and 10^−11 M) in a total volume of 30 μL.
Inhibitor stock solutions (200 mM) were prepared in DMSO. Immediately prior to the commencement of the experiment, the stocks were further diluted to 10^−6 M in the assay buffer, from which 1:2 serial dilutions were prepared. All measurements were done in triplicate.
The reaction mixture contained 20 μM substrate, 20 nM human FAP (constant), assay buffer (50 mM Tris, 100 mM NaCl, 1 mM EDTA, pH=7.4) and inhibitor (serial dilution from 10^−6 to 10^−11 M, 1:2) in a total volume of 20 μL.
as §1, with “human FAP (constant),” for “human FAP,”, “and tested compound (serial dilution from” for “and inhibitor (ranging between”, “10^−6 to” for “10^−6 and”, “10^−11 M, 1:2)” for “10^−11 M)”, “of 20” for “of 30”

[2] = biological target: T1, hFAP; assay: Chromatographic co-elution (PD-10) of ligand-protein complexes, hFAP; type: binding; settings: PD-10 column, hFAP 2 μM
Protocol: A PD-10 column was pre-equilibrated with assay buffer (50 mM Tris, 100 mM NaCl, 1 mM EDTA, pH=7.4) prior to the loading of the complex. Human FAP (2 μM) and fluorescein-labeled binders (6 μM) were incubated for 30 min at 37° C. in the dark. The mixture was loaded and the column was flushed using the assay buffer. The flow through was collected in 96-well plates and the fluorescence was measured immediately on a TECAN microtiter plate reader, monitoring the fluorescence at an excitation wavelength of 485 nm and an emission wavelength of 535 nm. The protein quantities were estimated by measuring the absorbance at 280 nm using a Nanodrop 2000/2000c spectrophotometer.
A PD-10 column was pre-equilibrated with assay buffer (50 mM Tris, 100 mM NaCl, 1 mM EDTA, pH=7.4) prior to the loading of the complex. A mixture of different proteins (hFAP=2 μM, mFAP=5 μM) and conjugate 15 (100 nM) were incubated and loaded on the column. The mixture was flushed using the assay buffer. The flow through was collected in 96-well plates and the fluorescence intensity was measured immediately on a TECAN microtiter plate reader, monitoring the fluorescence at an excitation wavelength of 485 nm and an emission wavelength of 535 nm. The concentration of the proteins was estimated by measuring the absorbance at 280 nm using a Nanodrop 2000/2000c spectrophotometer.

[3] = biological target: T1, hFAP; assay: Affinity measurement to human FAP by fluorescence polarization; type: binding; settings: binder 10 nM, read-out: KD to hFAP
Protocol: Fluorescence polarization measurements were performed in 384-well plates (non-binding, ps, f-bottom, black, high volume, 30 μL final volume). A stock solution of human FAP (4 μM) was serially diluted with buffer (50 mM Tris, 100 mM NaCl, 1 mM EDTA, pH=7.4), while the final concentration of the binders was kept constant at 10 nM. The measurements were carried out after incubating for 30 min at 37° C. in the dark by fluorescent polarization (FIG. 4).
(§2) Fluorescence polarization experiments were performed in 384-well plates (non-binding, ps, f-bottom, black, high volume, 30 μL final volume). Stock solutions of human FAP (4 μM) and murine FAP (5 μM) were serially diluted with buffer (50 mM Tris, 100 mM NaCl, 1 mM EDTA, pH=7.4), while the final concentration of the binders was kept constant at 10 nM. The fluorescence anisotropy was measured on a TECAN microtiter plate reader. Experiments were performed in triplicate and the mean anisotropy values fitted using Prism 7.

[4] = biological target: T1, hFAP; assay: Dissociation rate measurement by fluorescence polarization; type: binding; settings: 2.0 nM binder, 1.0 μM human FAP, 37° C., 20 μM fluorescein-free competitor
Protocol: Fluorescence polarization measurements to determine the koff values were performed in 384-well plates (non-binding, ps, f-bottom, black, high volume, 30 μL final volume). The measurements were carried out after pre-incubation of 2.0 nM fluorescein-labelled binders with human FAP at a constant concentration of 1.0 μM at 37° C. in the dark. The dissociation of the fluorescein-labeled compound was induced by adding a large excess of the corresponding fluorescein-free binders (compound P3 obtained in Step 3 of Example 2 and compound H6 obtained in Step 6 of Comparative Example 1, respectively, each at 20 μM final concentration).

[5] = biological target: T2, murine FAP (Mus musculus, UniProt P97321); assay: Affinity measurement to murine FAP by fluorescence polarization; type: binding; settings: binder 10 nM, read-out: KD to mFAP
T2 sequence (P97321 1-761): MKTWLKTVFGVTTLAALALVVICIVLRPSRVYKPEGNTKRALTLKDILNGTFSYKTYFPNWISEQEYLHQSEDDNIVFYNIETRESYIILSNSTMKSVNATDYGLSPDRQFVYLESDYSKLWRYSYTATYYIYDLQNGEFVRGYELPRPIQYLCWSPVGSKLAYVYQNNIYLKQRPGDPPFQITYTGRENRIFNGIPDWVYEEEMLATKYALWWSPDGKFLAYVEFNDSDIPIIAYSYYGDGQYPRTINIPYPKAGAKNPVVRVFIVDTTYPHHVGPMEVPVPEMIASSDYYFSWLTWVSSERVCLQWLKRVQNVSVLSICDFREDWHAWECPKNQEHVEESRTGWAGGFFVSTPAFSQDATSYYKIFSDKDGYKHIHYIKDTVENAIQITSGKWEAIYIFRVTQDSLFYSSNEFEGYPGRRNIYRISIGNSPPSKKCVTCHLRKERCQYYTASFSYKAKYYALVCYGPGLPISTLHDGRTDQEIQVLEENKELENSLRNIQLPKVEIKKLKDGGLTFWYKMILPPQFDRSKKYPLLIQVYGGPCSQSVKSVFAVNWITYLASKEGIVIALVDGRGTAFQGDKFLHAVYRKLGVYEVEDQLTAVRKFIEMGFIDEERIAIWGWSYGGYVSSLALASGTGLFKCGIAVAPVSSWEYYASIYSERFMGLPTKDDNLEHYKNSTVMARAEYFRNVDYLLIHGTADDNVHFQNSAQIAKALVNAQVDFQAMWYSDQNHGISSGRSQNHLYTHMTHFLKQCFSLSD
Protocol: as §2

[6] = FIG. 5, 30 min preincubation at 37° C.

COc1ccc2nccc(C(=O)NCC(=O)N3CCC[C@H]3C#N)c2c1 [Conjugate 28, (S)-N-(2-(2-cyanopyrrolidin-1-yl)-2-oxoethyl)-6-methoxyquinoline-4-carboxamide]
hFAP inhibition (in words) [1]: lower FAP inhibition property compared with Example 2, P4

C[C@H](NC(=O)c1ccnc(CNC(=O)CCC(=O)O)c1)C(=O)N1CC(F)(F)C[C@H]1C#N [Conjugate 29, 4-(((4-(((S)-1-((S)-2-cyano-4,4-difluoropyrrolidin-1-yl)-1-oxopropan-2-yl)carbamoyl)pyridin-2-yl)methyl)amino)-4-oxobutanoic acid]
hFAP inhibition (in words) [1]: does not inhibit FAP proteolytic activity at the concentrations tested in the assay

N#C[C@@H]1CC(F)(F)CN1C(=O)CNC(=O)c1ccnc2ccc(OCCCN3CCNCC3)cc12 [Conjugate H6, (S)—N-(2-(2-cyano-4,4-difluoropyrrolidin-1-yl)-2-oxoethyl)-6-(3-(piperazin-1-yl)propoxy)quinoline-4-carboxamide]
IC50 [1, 6]: 24.6 nM

N#C[C@@H]1CC(F)(F)CN1C(=O)CNC(=O)c1ccnc2c(N)cccc12 [Conjugate P3, (S)-8-amino-N-(2-(2-cyano-4,4-difluoropyrrolidin-1-yl)-2-oxoethyl)quinoline-4-carboxamide]
IC50 [1, 6]: 20.2 nM

N#C[C@@H]1CC(F)(F)CN1C(=O)CNC(=O)c1ccnc2c(NC(=O)CCC(=O)O)cccc12 [Conjugate P4, (S)-4-((4-((2-(2-cyano-4,4-difluoropyrrolidin-1-yl)-2-oxoethyl)carbamoyl)quinolin-8-yl)amino)-4-oxobutanoic acid]
IC50 ([1]; FIG. 9, total volume 20 μL): 16.8 nM

N#C[C@@H]1CC(F)(F)CN1C(=O)CNC(=O)c1ccnc2c(N)cccc12 [ESV6 ligand]
IC50 [1, 6]: 20.2 nM

N#C[C@@H]1CC(F)(F)CN1C(=O)CNC(=O)c1ccnc2c(NC(=O)CCC(=O)NCCOCCOCCNC(=S)Nc3ccc4c(c3)C(=O)OC43c4ccc(O)cc4Oc4cc(O)ccc43)cccc12 [ESV6-fluo, (S)—N1-(4-((2-(2-cyano-4,4-difluoropyrrolidin-1-yl)-2-oxoethyl)carbamoyl)quinolin-8-yl)-N4-(2-(2-(2-(3-(3′,6′-dihydroxy-3-oxo-3H-spiro[isobenzofuran-1,9′-xanthen]-5-yl)thioureido)ethoxy)ethoxy)ethyl)succinamide]
complex formation with hFAP in PD-10 co-elution [2]: stable complex is formed | Kd [3]: 0.78 nM | dissociation from hFAP, regression coefficient [4]: −0.09356

N#C[C@@H]1CC(F)(F)CN1C(=O)CNC(=O)c1ccnc2ccc(OCCCN3CCNCC3)cc12 [Haberkorn ligand]
IC50 [1, 6]: 24.6 nM

N#C[C@@H]1CC(F)(F)CN1C(=O)CNC(=O)c1ccnc2ccc(OCCCN3CCN(C(=O)c4ccc5c(c4)C(=O)OC54c5ccc(O)cc5Oc5cc(O)ccc54)CC3)cc12 [Haberkorn-fluo, (S)—N-(2-(2-cyano-4,4-difluoropyrrolidin-1-yl)-2-oxoethyl)-6-(3-(4-(3′,6′-dihydroxy-3-oxo-3H-spiro[isobenzofuran-1,9′-xanthene]-5-carbonyl)piperazin-1-yl)propoxy)quinoline-4-carboxamide, reference compound]
complex formation with hFAP in PD-10 co-elution [2]: stable complex is formed | Kd [3]: 0.89 nM | dissociation from hFAP, regression coefficient [4]: −0.07511

N#C[C@@H]1CC(F)(F)CN1C(=O)CNC(=O)c1ccnc2cc(Nc3ccccc3)ccc12 [compound 24, (S)-N-(2-(2-cyano-4,4-difluoropyrrolidin-1-yl)-2-oxoethyl)-7-(phenylamino)quinoline-4-carboxamide]
IC50 ([1]; FIG. 9, total volume 20 μL): 33.5 nM

N#C[C@@H]1CC(F)(F)CN1C(=O)CNC(=O)c1ccnc2ccc(OCCCN3CCN(C(=O)CCC(=O)N[C@@H](CC(=O)O)C(=O)N[C@@H](CCCCN)C(=O)N[C@@H](CC(=O)O)C(=O)N[C@@H](CSC4CC(=O)N(c5ccc6c(c5)C(=O)OC65c6ccc(O)cc6Oc6cc(O)ccc65)C4=O)C(=O)O)CC3)cc12 (stereo partly shown) [conjugate 25, reference compound] ({X2-Suc}-DKDC(Fluorescein(5-Mal))-OH)
Kd [5]: 30.9 nM | Kd [3]: 1.02 nM
